# Assay results from the OligoGym collection.
# HELM strings list units from the 5' end as sugar, base in round brackets, then linkage (d deoxyribose, r ribose, m 2'-O-methyl, p phosphodiester). Strings are as the collection lists them; they lack the last nucleoside at the 3' end of the tested compound. [moe] = 2'-O-(2-methoxyethyl) (MOE); [sp] = phosphorothioate linkage; [m5C] = 5-methylcytosine
# Molecular target: SCN2A
# Test: mouse, dose not given
# Details: ASO
row,Substance,3 h FOB score
1,RNA1{[moe](T)[sp].[moe](G)p.[moe]([m5C])p.[moe](A)p.d(T)[sp].d(G)[sp].d(T)[sp].d(A)[sp].d(A)[sp].d([m5C])[sp].d([m5C])[sp].d(T)[sp].d(T)[sp].d(T)[sp].[moe](A)p.[moe](T)p.[moe](A)p.[moe]([m5C])[sp].[moe](A)}$$$$ (last 3' nucleoside missing),0 score 0-7
2,RNA1{[moe](T)[sp].[moe](G)p.[moe]([m5C])p.[moe](T)p.[moe]([m5C])p.d(A)[sp].d([m5C])[sp].d(T)[sp].d(G)[sp].d(T)[sp].d([m5C])[sp].d([m5C])[sp].d(T)[sp].d(A)[sp].d(T)[sp].[moe](T)p.[moe](G)p.[moe](A)[sp].[moe](A)}$$$$ (last 3' nucleoside missing),4 score 0-7
3,RNA1{[moe](T)[sp].[moe](G)p.[moe]([m5C])p.[moe]([m5C])p.[moe](A)p.[moe](T)p.d(T)[sp].d(T)[sp].d([m5C])[sp].d(T)[sp].d(A)[sp].d(T)[sp].d(A)[sp].d(A)[sp].d([m5C])[sp].d(T)[sp].[moe]([m5C])p.[moe](A)[sp].[moe](G)}$$$$ (last 3' nucleoside missing),0 score 0-7
4,RNA1{[moe](T)[sp].[moe](T)p.[moe](G)p.[moe](A)p.[moe]([m5C])p.d([m5C])[sp].d(A)[sp].d([m5C])[sp].d(G)[sp].d([m5C])[sp].d(T)[sp].d(T)[sp].d(A)[sp].d([m5C])[sp].d(A)[sp].[moe](T)p.[moe]([m5C])p.[moe](A)[sp].[moe](A)}$$$$ (last 3' nucleoside missing),2 score 0-7
5,RNA1{[moe](T)[sp].[moe](T)p.[moe](G)p.[moe](G)p.[moe](G)p.d(T)[sp].d([m5C])[sp].d(T)[sp].d([m5C])[sp].d(T)[sp].d(T)[sp].d(A)[sp].d(G)[sp].d([m5C])[sp].d(T)[sp].[moe](T)p.[moe](T)p.[moe]([m5C])[sp].[moe](T)}$$$$ (last 3' nucleoside missing),2.67 score 0-7
6,RNA1{[moe](T)[sp].[moe](T)p.[moe](T)p.[moe](G)p.[moe](G)p.d(G)[sp].d(T)[sp].d([m5C])[sp].d(T)[sp].d([m5C])[sp].d(T)[sp].d(T)[sp].d(A)[sp].d(G)[sp].d([m5C])[sp].[moe](T)p.[moe](T)p.[moe](T)[sp].[moe]([m5C])}$$$$ (last 3' nucleoside missing),3.33 score 0-7
7,RNA1{[moe](T)[sp].[moe](T)p.[moe](T)p.[moe](G)p.[moe]([m5C])p.[moe]([m5C])p.d(A)[sp].d(T)[sp].d(T)[sp].d(T)[sp].d([m5C])[sp].d(T)[sp].d(A)[sp].d(T)[sp].d(A)[sp].d(A)[sp].[moe]([m5C])p.[moe](T)[sp].[moe]([m5C])}$$$$ (last 3' nucleoside missing),0 score 0-7
8,RNA1{[moe](T)[sp].[moe](T)p.[moe](T)p.[moe](G)p.d(G)[sp].d(G)[sp].d([m5C])[sp].d([m5C])[sp].d(A)[sp].d(T)[sp].d(T)[sp].d(T)[sp].d(T)[sp].d([m5C])[sp].[moe](A)p.[moe](T)p.[moe]([m5C])p.[moe](A)[sp].[moe](T)}$$$$ (last 3' nucleoside missing),0 score 0-7
9,RNA1{[moe](T)[sp].[moe](T)p.[moe]([m5C])p.[moe](T)p.[moe](A)p.[moe](T)p.d(T)[sp].d(T)[sp].d(T)[sp].d(A)[sp].d(T)[sp].d(A)[sp].d(A)[sp].d(A)[sp].d(T)[sp].d(G)[sp].[moe]([m5C])p.[moe]([m5C])[sp].[moe](G)}$$$$ (last 3' nucleoside missing),3 score 0-7
10,RNA1{[moe](T)[sp].[moe](T)p.[moe]([m5C])p.[moe](T)p.[moe](A)p.d(T)[sp].d(T)[sp].d(T)[sp].d(T)[sp].d(A)[sp].d(T)[sp].d(A)[sp].d(A)[sp].d(A)[sp].d(T)[sp].[moe](G)p.[moe]([m5C])p.[moe]([m5C])[sp].[moe](G)}$$$$ (last 3' nucleoside missing),0 score 0-7
11,RNA1{[moe](T)[sp].[moe](T)p.[moe]([m5C])p.[moe](T)p.[moe](G)p.[moe]([m5C])p.d(A)[sp].d(T)[sp].d(G)[sp].d(T)[sp].d(A)[sp].d(A)[sp].d([m5C])[sp].d([m5C])[sp].d(T)[sp].d(T)[sp].[moe](T)p.[moe](A)[sp].[moe](T)}$$$$ (last 3' nucleoside missing),0 score 0-7
12,RNA1{[moe](T)[sp].[moe](T)p.[moe]([m5C])p.[moe](T)p.[moe](G)p.d([m5C])[sp].d(A)[sp].d(T)[sp].d(G)[sp].d(T)[sp].d(A)[sp].d(A)[sp].d([m5C])[sp].d([m5C])[sp].d(T)[sp].[moe](T)p.[moe](T)p.[moe](A)[sp].[moe](T)}$$$$ (last 3' nucleoside missing),1 score 0-7
13,RNA1{[moe](T)[sp].[moe](T)p.[moe]([m5C])p.[moe](T)p.d(A)[sp].d(T)[sp].d(T)[sp].d(T)[sp].d(T)[sp].d(A)[sp].d(T)[sp].d(A)[sp].d(A)[sp].d(A)[sp].[moe](T)p.[moe](G)p.[moe]([m5C])p.[moe]([m5C])[sp].[moe](G)}$$$$ (last 3' nucleoside missing),1 score 0-7
14,RNA1{[moe](T)[sp].[moe](T)p.[moe]([m5C])p.[moe](T)p.d(G)[sp].d([m5C])[sp].d(A)[sp].d(T)[sp].d(G)[sp].d(T)[sp].d(A)[sp].d(A)[sp].d([m5C])[sp].d([m5C])[sp].[moe](T)p.[moe](T)p.[moe](T)p.[moe](A)[sp].[moe](T)}$$$$ (last 3' nucleoside missing),1 score 0-7
15,RNA1{[moe](T)[sp].[moe]([m5C])p.[moe](A)p.[moe](G)p.[moe]([m5C])p.[moe](A)p.d(T)[sp].d(G)[sp].d(T)[sp].d(T)[sp].d(T)[sp].d(A)[sp].d(T)[sp].d([m5C])[sp].d(T)[sp].d(T)[sp].[moe](A)p.[moe](G)[sp].[moe](T)}$$$$ (last 3' nucleoside missing),0 score 0-7
16,RNA1{[moe](T)[sp].[moe]([m5C])p.[moe](A)p.[moe](G)p.d([m5C])[sp].d(A)[sp].d(T)[sp].d(G)[sp].d(T)[sp].d(T)[sp].d(T)[sp].d(A)[sp].d(T)[sp].d([m5C])[sp].[moe](T)p.[moe](T)p.[moe](A)p.[moe](G)[sp].[moe](T)}$$$$ (last 3' nucleoside missing),2.33 score 0-7
17,RNA1{[moe](T)[sp].[moe]([m5C])p.[moe](A)p.[moe](T)p.[moe](G)p.[moe]([m5C])p.d(A)[sp].d(T)[sp].d(A)[sp].d(A)[sp].d(T)[sp].d([m5C])[sp].d([m5C])[sp].d([m5C])[sp].d(A)[sp].d(T)[sp].[moe](T)p.[moe](A)[sp].[moe](T)}$$$$ (last 3' nucleoside missing),0 score 0-7
18,RNA1{[moe](T)[sp].[moe]([m5C])p.[moe](A)p.[moe](T)p.[moe](G)p.d([m5C])[sp].d(A)[sp].d(T)[sp].d(A)[sp].d(A)[sp].d(T)[sp].d([m5C])[sp].d([m5C])[sp].d([m5C])[sp].d(A)[sp].[moe](T)p.[moe](T)p.[moe](A)[sp].[moe](T)}$$$$ (last 3' nucleoside missing),0 score 0-7
19,RNA1{[moe](T)[sp].[moe]([m5C])p.[moe](A)p.[moe](T)p.d(G)[sp].d([m5C])[sp].d(A)[sp].d(T)[sp].d(A)[sp].d(A)[sp].d(T)[sp].d([m5C])[sp].d([m5C])[sp].d([m5C])[sp].[moe](A)p.[moe](T)p.[moe](T)p.[moe](A)[sp].[moe](T)}$$$$ (last 3' nucleoside missing),0 score 0-7
20,RNA1{[moe](T)[sp].[moe]([m5C])p.[moe](T)p.[moe](A)[sp].d(T)[sp].d(T)[sp].d(T)[sp].d(T)[sp].d(A)[sp].d(T)[sp].d(A)[sp].d(A)[sp].[moe](A)p.[moe](T)p.[moe](G)p.[moe]([m5C])[sp].[moe]([m5C])}$$$$ (last 3' nucleoside missing),1 score 0-7
21,RNA1{[moe](T)[sp].[moe]([m5C])p.[moe](T)p.[moe](A)p.[moe](T)[sp].d(T)[sp].d(T)[sp].d(T)[sp].d(A)[sp].d(T)[sp].d(A)[sp].d(A)[sp].d(A)[sp].[moe](T)p.[moe](G)p.[moe]([m5C])[sp].[moe]([m5C])}$$$$ (last 3' nucleoside missing),1.33 score 0-7
22,RNA1{[moe](T)[sp].[moe]([m5C])p.[moe](T)p.[moe](A)p.[moe](T)p.[moe](T)[sp].d(T)[sp].d(T)[sp].d(A)[sp].d(T)[sp].d(A)[sp].d(A)[sp].d(A)[sp].d(T)[sp].[moe](G)p.[moe]([m5C])[sp].[moe]([m5C])}$$$$ (last 3' nucleoside missing),1 score 0-7
23,RNA1{[moe](T)[sp].[moe]([m5C])p.[moe](T)p.[moe](G)[sp].d([m5C])[sp].d(A)[sp].d(T)[sp].d(G)[sp].d(T)[sp].d(A)[sp].d(A)[sp].d([m5C])[sp].[moe]([m5C])p.[moe](T)p.[moe](T)p.[moe](T)[sp].[moe](A)}$$$$ (last 3' nucleoside missing),2 score 0-7
24,RNA1{[moe](T)[sp].[moe]([m5C])p.[moe](T)p.[moe](G)p.[moe]([m5C])[sp].d(A)[sp].d(T)[sp].d(G)[sp].d(T)[sp].d(A)[sp].d(A)[sp].d([m5C])[sp].d([m5C])[sp].[moe](T)p.[moe](T)p.[moe](T)[sp].[moe](A)}$$$$ (last 3' nucleoside missing),1 score 0-7
25,RNA1{[moe](T)[sp].[moe]([m5C])p.[moe](T)p.[moe](G)p.[moe]([m5C])p.[moe](A)[sp].d(T)[sp].d(G)[sp].d(T)[sp].d(A)[sp].d(A)[sp].d([m5C])[sp].d([m5C])[sp].d(T)[sp].[moe](T)p.[moe](T)[sp].[moe](A)}$$$$ (last 3' nucleoside missing),0.33 score 0-7
26,RNA1{[moe](T)[sp].[moe]([m5C])p.[moe](T)p.[moe](G)p.[moe]([m5C])p.[moe](A)p.d(T)[sp].d(G)[sp].d(T)[sp].d(A)[sp].d(A)[sp].d([m5C])[sp].d([m5C])[sp].d(T)[sp].d(T)[sp].d(T)[sp].[moe](A)p.[moe](T)[sp].[moe](A)}$$$$ (last 3' nucleoside missing),0 score 0-7
27,RNA1{[moe](T)[sp].[moe]([m5C])p.[moe](T)p.[moe](G)p.[moe]([m5C])p.d(A)[sp].d(T)[sp].d(G)[sp].d(T)[sp].d(A)[sp].d(A)[sp].d([m5C])[sp].d([m5C])[sp].d(T)[sp].d(T)[sp].[moe](T)p.[moe](A)p.[moe](T)[sp].[moe](A)}$$$$ (last 3' nucleoside missing),0 score 0-7
